Data published in PubChem BioAssay AID1963828 (Molecular Pharmacology Branch, DTP, NCI, 2024).

Test system: 991263-137-R1-J2-PDC complex spheroid viability
Test: Anticancer human tumor 991263-137-R1-J2-PDC patient-derived colon adenocarcinoma cell line growth inhibition [POLQ]
Settings: for IC50: curve of first compound; for viability, T/C: stronger effect = lower value
Summary of the method: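 PDC + HUVEC + MSC complex spheroids; POLQ inhibitors ± partner drugs; top conc. at/near clinical Cmax, else 10 microM (SN-38 1 microM), half-log dilutions; 37 degrees C, 5% CO2.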

[1] = second compound 0.0316 µM, first compound 0.0316 µM
[2] = second compound 0.0316 µM, first compound 0.1 µM
[3] = second compound 0.0316 µM, first compound 0.316 µM
[4] = second compound 0.0316 µM, first compound 1 µM
[5] = second compound 0.0316 µM, first compound 3.16 µM
[6] = second compound 0.0316 µM, first compound 10 µM
[7] = second compound 0.1 µM, first compound 0.0316 µM
[8] = second compound 0.1 µM, first compound 0.1 µM
[9] = second compound 0.1 µM, first compound 0.316 µM
[10] = second compound 0.1 µM, first compound 1 µM
[11] = second compound 0.1 µM, first compound 3.16 µM
[12] = second compound 0.1 µM, first compound 10 µM
[13] = second compound 0.316 µM, first compound 0.0316 µM
[14] = second compound 0.316 µM, first compound 0.1 µM
[15] = second compound 0.316 µM, first compound 0.316 µM
[16] = second compound 0.316 µM, first compound 1 µM
[17] = second compound 0.316 µM, first compound 3.16 µM
[18] = second compound 0.316 µM, first compound 10 µM
[19] = second compound 1 µM, first compound 0.0316 µM
[20] = second compound 1 µM, first compound 0.1 µM
[21] = second compound 1 µM, first compound 0.316 µM
[22] = second compound 1 µM, first compound 1 µM
[23] = second compound 1 µM, first compound 3.16 µM
[24] = second compound 1 µM, first compound 10 µM
[25] = second compound 3.16 µM, first compound 0.0316 µM
[26] = second compound 3.16 µM, first compound 0.1 µM
[27] = second compound 3.16 µM, first compound 0.316 µM
[28] = second compound 3.16 µM, first compound 1 µM
[29] = second compound 3.16 µM, first compound 3.16 µM
[30] = second compound 3.16 µM, first compound 10 µM
[31] = second compound 10 µM, first compound 0.0316 µM
[32] = second compound 10 µM, first compound 0.1 µM
[33] = second compound 10 µM, first compound 0.316 µM
[34] = second compound 10 µM, first compound 1 µM
[35] = second compound 10 µM, first compound 3.16 µM
[36] = second compound 10 µM, first compound 10 µM
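Also: spheroids exposed to compounds for 7 days before readout.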
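For viability, T/C in this document: 100% = DMSO vehicle control viability.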

SMILES: CC1COCCN1c1cc(-c2ccnn2C)c2ccnc(-c3ccn[nH]3)c2n1 (centres undefined) + Nc1ccc(C#CCN(C(=O)Cc2ncc(C(F)(F)F)cc2C(F)(F)F)c2ccc(F)cc2)nn1
- IC50 (second compound 0.0316 µM): 1140 nM
- IC50 (second compound 0.1 µM): 1610 nM
- IC50 (second compound 0.316 µM): 1150 nM
- IC50 (second compound 1 µM): 1400 nM
- IC50 (second compound 3.16 µM): 1110 nM
- IC50 (second compound 10 µM): 918 nM
- viability, T/C [1]: 105%
- viability, T/C [2]: 93.8%
- viability, T/C [3]: 75.6%
- viability, T/C [4]: 50.6%
- viability, T/C [5]: 38.6%
- viability, T/C [6]: 32.5%
- viability, T/C [7]: 105%
- viability, T/C [8]: 88.7%
- viability, T/C [9]: 69.5%
- viability, T/C [10]: 58.4%
- viability, T/C [11]: 39.9%
- viability, T/C [12]: 32.5%
- viability, T/C [13]: 99.4%
- viability, T/C [14]: 107%
- viability, T/C [15]: 74.4%
- viability, T/C [16]: 53.7%
- viability, T/C [17]: 40.6%
- viability, T/C [18]: 32%
- viability, T/C [19]: 108%
- viability, T/C [20]: 94%
- viability, T/C [21]: 75.5%
- viability, T/C [22]: 53.4%
- viability, T/C [23]: 40.4%
- viability, T/C [24]: 31.1%
- viability, T/C [25]: 103%
- viability, T/C [26]: 95.8%
- viability, T/C [27]: 72.5%
- viability, T/C [28]: 53%
- viability, T/C [29]: 35.8%
- viability, T/C [30]: 31.1%
- viability, T/C [31]: 93.9%
- viability, T/C [32]: 88.2%
- viability, T/C [33]: 73%
- viability, T/C [34]: 46.2%
- viability, T/C [35]: 42.6%
- viability, T/C [36]: 33.8%

SMILES: CNCc1ccc(-c2[nH]c3cc(F)cc4c3c2CCNC4=O)cc1 + Cc1cccc(N(C)C(=O)C2C(O)CCN2c2nc(C)cc(C(F)(F)F)c2C#N)c1
- IC50 (second compound 0.0316 µM): > 10000 nM
- IC50 (second compound 0.1 µM): > 10000 nM
- IC50 (second compound 0.316 µM): > 10000 nM
- IC50 (second compound 1 µM): > 10000 nM
- IC50 (second compound 3.16 µM): > 10000 nM
- IC50 (second compound 10 µM): > 10000 nM
- viability, T/C [1]: 107%
- viability, T/C [2]: 103%
- viability, T/C [3]: 118%
- viability, T/C [4]: 93.4%
- viability, T/C [5]: 86.2%
- viability, T/C [6]: 106%
- viability, T/C [7]: 110%
- viability, T/C [8]: 107%
- viability, T/C [9]: 101%
- viability, T/C [10]: 107%
- viability, T/C [11]: 105%
- viability, T/C [12]: 99.4%
- viability, T/C [13]: 108%
- viability, T/C [14]: 120%
- viability, T/C [15]: 77.2%
- viability, T/C [16]: 112%
- viability, T/C [17]: 110%
- viability, T/C [18]: 126%
- viability, T/C [19]: 115%
- viability, T/C [20]: 102%
- viability, T/C [21]: 102%
- viability, T/C [22]: 113%
- viability, T/C [23]: 127%
- viability, T/C [24]: 94.3%
- viability, T/C [25]: 112%
- viability, T/C [26]: 101%
- viability, T/C [27]: 107%
- viability, T/C [28]: 108%
- viability, T/C [29]: 110%
- viability, T/C [30]: 119%
- viability, T/C [31]: 107%
- viability, T/C [32]: 114%
- viability, T/C [33]: 107%
- viability, T/C [34]: 114%
- viability, T/C [35]: 123%
- viability, T/C [36]: 94.2%
